tested on: Tunicamycin induced ISR (ATF4 signal ratio between nucleus and cytoplasm) in wild-type HEK293 cells; assay: HEK-ATF4 High Content Imaging assay; type: cell-based; conditions: Homo sapiens, prevention of Tunicamycin induced ISR, 6 h incubation, ATF4 immunofluorescence nucleus/cytoplasm ratio
Method: HEK-ATF4 High Content Imaging Assay
Example compounds were tested in the HEK-ATF4 High Content Imaging assay to assess their pharmacological potency to prevent Tunicamycin induced ISR. Wild-type HEK293 cells were plated in 384-well imaging assay plates at a density of 12,000 cells per well in growth medium (containing DMEM/F12, 10% FBS, 2 mM L-Glutamine, 100 U/mL Penicillin—100 μg/mL Streptomycin) and incubated at 37° C., 5% CO2. 24 h later, the medium was changed to 50 μL assay medium per well (DMEM/F12, 0.3% FBS, 2 mM L-Glutamine, 100 U/mL Penicillin—100 μg/mL Streptomycin). Example compounds were serially diluted in DMSO, spotted into intermediate plates and prediluted with assay medium containing 3.3 μM Tunicamycin to give an 11-fold excess of final assay concentration. In addition to the example compound testing area, the plates also contained multiples of control wells for assay normalization purposes, wells containing Tunicamycin but no example compounds (High control), as well as wells containing neither example compound nor Tunicamycin (Low control). The assay was started by transferring 5 μL from the intermediate plate into the assay plates, followed by incubation for 6 h at 37° C., 5% CO2. Subsequently, cells were fixed (4% PFA in PBS, 20 min at r.t.) and submitted to indirect ATF4 immunofluorescence staining (primary antibody rabbit anti ATF4, clone D4B8, Cell Signaling Technologies; secondary antibody Alexa Fluor 488 goat anti-rabbit IgG (H+L), Thermofisher Scientific). Nuclei were stained using Hoechst dye (Thermofisher Scientific), and plates were imaged on an Opera Phenix High Content imaging platform equipped with 405 nm and 488 nm excitation. Finally, images were analyzed using script based algorithms. The main readout HEK-ATF4 monitored the ATF4 signal ratio between nucleus and cytoplasm. Tunicamycin induced an increase in the overall ATF4 ratio signal, which was prevented by ISR modulating example compounds. In addition, HEK-CellCount readout was derived from counting the number of stained nuclei corresponding to healthy cells. This readout served as an internal toxicity control.

Structure (SMILES)	IC50 [nM]
O=C(N[C@H]1CC[C@H](c2nnc(OCCOC(F)(F)F)o2)NC1)c1cnc2cc(Cl)c(F)cc2c1 [Example 11, 7-chloro-6-fluoro-N-[(3S,6R)-6-{5-[2-(trifluoromethoxy)ethoxy]-1,3,4-oxadiazol-2-yl}piperidin-3-yl]quinoline-3-carboxamide]	1 to 500
O=C(N[C@H]1CC[C@H](c2nnc(OCCOC(F)(F)F)o2)NC1)c1ccc(Cl)c(C(F)(F)F)c1 [Example 37, 4-chloro-N-[(3S,6R)-6-{5-[2-(trifluoromethoxy)ethoxy]-1,3,4-oxadiazol-2-yl}piperidin-3-yl]-3-(trifluoromethyl)benzamide]	2000 to 15000
Cc1cc(C(=O)N[C@H]2CC[C@H](c3nnc(OCCOC(F)(F)F)o3)NC2)ccc1Cl [Example 31, 4-chloro-3-methyl-N-[(3S,6R)-6-{5-[2-(trifluoromethoxy)ethoxy]-1,3,4-oxadiazol-2-yl}piperidin-3-yl]benzamide]	2000 to 15000
Cn1c(C(=O)N[C@H]2CC[C@H](c3nnc(OCCOC(F)(F)F)o3)NC2)cc2cc(C(F)(F)F)ccc21 [Example 22, 1-methyl-N-[(3S,6R)-6-{5-[2-(trifluoromethoxy)ethoxy]-1,3,4-oxadiazol-2-yl}piperidin-3-yl]-5-(trifluoromethyl)-1H-indole-2-carboxamide]	500 to 2000
O=C(N[C@H]1CC[C@H](c2nnc([C@H]3C[C@@H](OC(F)(F)F)C3)o2)NC1)c1cnc2cc(Cl)ccc2c1 [Example 51, 7-chloro-N-[(3S,6R)-6-{5-[(1s,3s)-3-(trifluoromethoxy)cyclobutyl]-1,3,4-oxadiazol-2-yl}piperidin-3-yl]quinoline-3-carboxamide]	1 to 500
Cc1ccc(C(=O)N[C@H]2CC[C@H](c3nnc(OCCOC(F)(F)F)o3)NC2)cc1 [Example 27, 4-methyl-N-[(3S,6R)-6-{5-[2-(trifluoromethoxy)ethoxy]-1,3,4-oxadiazol-2-yl}piperidin-3-yl]benzamide]	2000 to 15000
O=C(N[C@H]1CC[C@H](c2nnc(OC/C=C/C(F)(F)F)o2)NC1)c1cnc2cc(Cl)ccc2c1 [Example 48, 7-chloro-N-[(3S,6R)-6-[5-[(E)-4,4,4-trifluorobut-2-enoxy]-1,3,4-oxadiazol-2-yl]-3-piperidyl]quinoline-3-carboxamide]	1 to 500
O=C(N[C@H]1CC[C@H](c2nnc(OCCOC(F)(F)F)o2)NC1)c1cc(F)c(Cl)c(F)c1 [Example 32, 4-chloro-3,5-difluoro-N-[(3S,6R)-6-{5-[2-(trifluoromethoxy)ethoxy]-1,3,4-oxadiazol-2-yl}piperidin-3-yl]benzamide]	2000 to 15000
O=C(N[C@H]1CC[C@H](c2nnc(OCCOC(F)(F)F)o2)NC1)c1ccc(Cl)c(Cl)n1 [Example 39, 5,6-dichloro-N-[(3S,6R)-6-{5-[2-(trifluoromethoxy)ethoxy]-1,3,4-oxadiazol-2-yl}piperidin-3-yl]pyridine-2-carboxamide]	2000 to 15000
O=C(N[C@H]1CC[C@H](c2nnc(OCCOC(F)(F)F)o2)NC1)C1=Cc2ccc(Cl)cc2OC1 [Example 4, 7-chloro-N-[(3S,6R)-6-{5-[2-(trifluoromethoxy)ethoxy]-1,3,4-oxadiazol-2-yl}piperidin-3-yl]-2H-chromene-3-carboxamide]	1 to 500
Cc1cc(C(=O)N[C@H]2CC[C@H](c3nnc(OCCOC(F)(F)F)o3)NC2)sc1C [Example 26, 4,5-dimethyl-N-[(3S,6R)-6-{5-[2-(trifluoromethoxy)ethoxy]-1,3,4-oxadiazol-2-yl}piperidin-3-yl]thiophene-2-carboxamide]	2000 to 15000
O=C(N[C@H]1CC[C@H](c2nnc(OCCOC(F)(F)F)o2)NC1)c1ccc(OCC(F)(F)F)nc1 [Example 13, 6-(2,2,2-trifluoroethoxy)-N-[(3S,6R)-6-{5-[2-(trifluoromethoxy)ethoxy]-1,3,4-oxadiazol-2-yl}piperidin-3-yl]pyridine-3-carboxamide]	2000 to 15000
O=C(N[C@H]1CC[C@H](c2nnc(OCCOC(F)(F)F)o2)NC1)c1ccc(Cl)c(OC(F)(F)F)c1 [Example 40, 4-chloro-3-(trifluoromethoxy)-N-[(3S,6R)-6-{5-[2-(trifluoromethoxy)ethoxy]-1,3,4-oxadiazol-2-yl}piperidin-3-yl]benzamide]	2000 to 15000
O=C(N[C@H]1CC[C@H](c2nnc(OCCOC(F)(F)F)o2)NC1)c1cnc2cc(Cl)ccc2c1 [Example 3, 7-chloro-N-[(3S,6R)-6-{5-[2-(trifluoromethoxy)ethoxy]-1,3,4-oxadiazol-2-yl}piperidin-3-yl]quinoline-3-carboxamide]	1 to 500
O=C(N[C@@H]1CC[C@@H](c2nnc([C@H]3C[C@@H](OC(F)(F)F)C3)o2)NC1)c1cnc2cc(Cl)ccc2c1 [Example 52, 7-chloro-N-[(3R,6S)-6-{5-[(1s,3s)-3-(trifluoromethoxy)cyclobutyl]-1,3,4-oxadiazol-2-yl}piperidin-3-yl]quinoline-3-carboxamide]	1 to 500
O=C(N[C@@H]1CC[C@@H](c2nnc(OCCOC(F)(F)F)o2)NC1)c1cnc2cc(Cl)ccc2c1 [Example 49, 7-chloro-N-[(3R,6S)-6-[5-[2-(trifluoromethoxy)ethoxy]-1,3,4-oxadiazol-2-yl]-3-piperidyl]quinoline-3-carboxamide]	1 to 500
O=C(N[C@H]1CC[C@H](c2nnc(OCCOC(F)(F)F)o2)NC1)c1cc2ccc(Cl)cn2c1 [Example 21, 6-chloro-N-[(3S,6R)-6-{5-[2-(trifluoromethoxy)ethoxy]-1,3,4-oxadiazol-2-yl}piperidin-3-yl]indolizine-2-carboxamide]	1 to 500
O=C(N[C@H]1CC[C@H](c2nnc(OCCOC(F)(F)F)o2)NC1)c1cn2cc(Cl)cc2cn1 [Example 15, 7-chloro-N-[(3S,6R)-6-{5-[2-(trifluoromethoxy)ethoxy]-1,3,4-oxadiazol-2-yl}piperidin-3-yl]pyrrolo[1,2-a]pyrazine-3-carboxamide]	2000 to 15000
O=C(N[C@H]1CC[C@H](c2nnc(OCCOC(F)(F)F)o2)NC1)c1cccc(Cl)c1 [Example 23, 3-chloro-N-[(3S,6R)-6-{5-[2-(trifluoromethoxy)ethoxy]-1,3,4-oxadiazol-2-yl}piperidin-3-yl]benzamide]	2000 to 15000
O=C(N[C@H]1CC[C@H](c2nnc(OCCOC(F)(F)F)o2)NC1)c1ccc(F)c(C(F)(F)F)c1 [Example 35, 4-fluoro-N-[(3S,6R)-6-{5-[2-(trifluoromethoxy)ethoxy]-1,3,4-oxadiazol-2-yl}piperidin-3-yl]-3-(trifluoromethyl)benzamide]	2000 to 15000
Cc1cc(C)cc(C(=O)N[C@H]2CC[C@H](c3nnc(OCCOC(F)(F)F)o3)NC2)c1 [Example 24, 3,5-dimethyl-N-[(3S,6R)-6-{5-[2-(trifluoromethoxy)ethoxy]-1,3,4-oxadiazol-2-yl}piperidin-3-yl]benzamide]	2000 to 15000
O=C(N[C@H]1CC[C@H](c2nnc(OCCOC(F)(F)F)o2)NC1)c1ccc(Cl)cc1 [Example 18, 4-chloro-N-[(3S,6R)-6-{5-[2-(trifluoromethoxy)ethoxy]-1,3,4-oxadiazol-2-yl}piperidin-3-yl]benzamide]	2000 to 15000
O=C(N[C@H]1CC[C@H](c2nnc(OCCOC(F)(F)F)o2)NC1)c1ccc2c(c1)OC(F)(F)O2 [Example 30, 2,2-difluoro-N-[(3S,6R)-6-{5-[2-(trifluoromethoxy)ethoxy]-1,3,4-oxadiazol-2-yl}piperidin-3-yl]-2H-1,3-benzodioxole-5-carboxamide]	500 to 2000
O=C(N[C@H]1CC[C@H](c2nnc(OCCOC(F)(F)F)o2)NC1)c1cnc2c(F)c(Cl)ccc2c1 [Example 19, 7-chloro-8-fluoro-N-[(3S,6R)-6-{5-[2-(trifluoromethoxy)ethoxy]-1,3,4-oxadiazol-2-yl}piperidin-3-yl]quinoline-3-carboxamide]	1 to 500
O=C(N[C@H]1CC[C@H](c2nnc(OCCOC(F)(F)F)o2)NC1)c1ccc(C(F)(F)F)c(Cl)c1 [Example 36, 3-chloro-N-[(3S,6R)-6-{5-[2-(trifluoromethoxy)ethoxy]-1,3,4-oxadiazol-2-yl}piperidin-3-yl]-4-(trifluoromethyl)benzamide]	2000 to 15000
O=C(N[C@H]1CC[C@H](c2nnc(OCCOC(F)(F)F)o2)NC1)c1ccc(Cl)c(Cl)c1 [Example 17, 3,4-dichloro-N-[(3S,6R)-6-{5-[2-(trifluoromethoxy)ethoxy]-1,3,4-oxadiazol-2-yl}piperidin-3-yl]benzamide]	500 to 2000
O=C(N[C@H]1CC[C@H](c2nnc(OCCOC(F)(F)F)o2)NC1)c1ccc(OC(F)(F)F)cc1 [Example 29, 4-(trifluoromethoxy)-N-[(3S,6R)-6-{5-[2-(trifluoromethoxy)ethoxy]-1,3,4-oxadiazol-2-yl}piperidin-3-yl]benzamide]	1 to 500
